Test results taken from the supplement of paper PMC10307832.

Assays:
Experiment in all cases: relative viability (nuclei count vs DMSO), 5 days (fraction); higher = more cells survive
[1] = compound: C1CNCCC1C2=CC(=NN2)C3=CC=NC=C3 + COc1cc2c(Oc3ccc(NC(=O)C4(C(=O)Nc5ccc(F)cc5)CC4)cc3F)ccnc2cc1OCCCN1CCOCC1 [Foretinib] (partner 0.25 µM)
Method in brief: (§1)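 After 5 days of treatment, lung cancer cells in 1536-well plates were fixed and stained in a single step (final 0.05% Triton X-100, 1% formaldehyde, 1 ug/ml Hoechst) and their nuclei counted on 4× images. Treatment had been applied by pin tool the day after seeding as one drug alone or as a fixed anchor-drug dose with five library-drug doses (not always all listed) in √10 steps. Relative viability is the nuclei count of treated wells divided by that of vehicle wells, and values are medians of duplicate plates.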

[2] = compound: C[C@@H](N)c1ccc(C(=O)Nc2ccnc3[nH]ccc23)cc1 + Cc1cc(Nc2cc(N3CCN(C)CC3)nc(Sc3ccc(NC(=O)C4CC4)cc3)n2)n[nH]1 [Tozasertib] (partner 0.1 µM)
Method in brief: as §1

[3] = compound: O[C@H]1CC[C@H](Nc2ncc3nc(Nc4c(F)cc(F)cc4F)n([C@H]4CCOC4)c3n2)CC1 [Tanzisertib] + O=C(CCCCCCC(=O)Nc1ccccc1)NO [Vorinostat] (partner 1 µM)
Method in brief: as §1

[4] = compound: C1CNCCC1C2=CC(=NN2)C3=CC=NC=C3 + CC(C)C[C@H](NC(=O)[C@H](Cc1ccccc1)NC(=O)c1cnccn1)B(O)O [Bortezomib] (partner 0.002 µM)
Method in brief: as §1

Cell Line	relative viability ([1]; first compound 0.08 µM)	relative viability ([1]; first compound 0.8 µM)	relative viability ([1]; first compound 2.53 µM)	relative viability ([1]; first compound 8 µM)	relative viability ([2]; first compound 0.04 µM)	relative viability ([2]; first compound 0.1265 µM)	relative viability ([2]; first compound 0.4 µM)	relative viability ([2]; first compound 1.265 µM)	relative viability ([2]; first compound 4 µM)	relative viability ([3]; first compound 0.08 µM)	relative viability ([3]; first compound 0.253 µM)	relative viability ([3]; first compound 0.8 µM)	relative viability ([3]; first compound 2.53 µM)	relative viability ([3]; first compound 8 µM)	relative viability ([4]; first compound 0.08 µM)	relative viability ([4]; first compound 0.8 µM)	relative viability ([4]; first compound 2.53 µM)	relative viability ([4]; first compound 8 µM)
201T	1.08	1.21	1.3	1.03	0.945	0.897	0.977	1.08	1.04	1.03	1.01	0.996	0.988	0.764	1.06	1.07	1.08	1.1
A549	0.932	0.979	1.03	1.01														
A-427	1.11	1.21	1.13	1.04	0.26	0.185	0.237		0.22	0.897	0.833	0.874	0.884	0.77	1.03	0.955	1.06	0.935
ABC-1	1.04	1.1	1.46	1.35	0.173	0.158	0.203		0.164	1.22	1.58	1.15	1.1	0.786	0.329	0.253	0.332	0.351
BEN	0.548	0.752	0.646	0.692	0.466	0.432	0.53	0.484	0.48	0.593	0.583	0.613	0.588	0.611	0.724	0.592	0.852	0.96
CAL-12T	1.09	1.11	1.22	1.06	0.366	0.392	0.413	0.443	0.283	0.896	0.663	0.909	0.893	0.755	1.08	1.01	1.05	1.07
COR-L23	1.07	0.946	1.01	0.931	0.232	0.188	0.204	0.202	0.144	0.438	0.504	0.479	0.494	0.537	0.872	0.993	0.95	0.981
COR-L 105	1.22	1.07	1.13	1.67	0.359	0.355	0.349	0.296	0.177	0.834	0.893	0.828	0.903	1	0.737	0.746	1.01	0.851
Calu-6	0.951	0.912	0.781	0.914											0.873	1.13	1.17	1.09
ChaGo-K-1	0.997	1.01	0.886	0.923	0.223	0.219	0.221	0.246	0.21	0.81	0.801	0.71	0.779	0.57	0.991	1.31	1.02	0.984
EBC-1	0.116	0.111	0.0919	0.135											0.694	0.575	0.591	0.55
EKVX	0.902	0.437	1.5	0.716	0.421	0.379	0.494	0.44	0.438	0.711	0.691	0.852	0.741	0.676	1.21	0.585	1.07	1.04
EMC-BAC-2	0.937	1.05	1.16	0.843	0.252	0.276	0.3	0.271	0.24	0.46	0.849	0.464	0.5	0.217	0.978	1.19	1.2	1.03
EPLC-272H	0.647	0.674	0.678	0.706	0.304	0.322	0.531	0.287	0.188	0.515	0.35	0.487	0.483	0.358	0.971	0.913	0.965	0.993
H3255	0.861	0.983	1.03	0.9	0.568	0.632	0.779	0.824	0.613	0.818	0.938	0.787	0.721	0.345	0.826	0.835	1.41	0.741
HARA	0.842	1.21	0.993	0.707		0.101	0.0806		0.087	0.558	0.556		0.385	0.585	1	1.28	1.1	1.15
HCC-15	0.899	1.18	1.07	1.03	0.519	0.332	0.507		0.657	0.91	0.766	0.857	0.807	0.923	0.991	1.23	0.994	0.938
HCC-44					0.793	0.809	1.15	1.2	0.789	1.22	1.16	1.19	1.19	1.25	0.911	0.93	1	0.886
HCC-78	0.532	0.507	0.602	0.536	0.51	0.405	0.733	0.415	0.633	0.505	0.455	0.461	0.403	0.447	0.439	0.405	0.467	0.619
HCC-366	0.95	0.946	0.905	1.03	0.141	0.169	0.132		0.229		0.361	0.386	0.428	0.309	0.856	1.11	1.08	1.04
HCC-827	1.04	1.07	1.01	1.12	0.449	0.445	0.447	0.411	0.412	0.747	0.871	0.725	0.853	0.357	1	1.02	1.06	1.01
HOP-62	1.06	1.31	1.18	1.09	0.328	0.351	0.369	0.398	0.297	0.632	0.599	0.679	0.768	0.605	0.479	0.84	1.15	0.728

Cell Line	relative viability ([1]; first compound 0.08 µM)	relative viability ([1]; first compound 0.8 µM)	relative viability ([1]; first compound 2.53 µM)	relative viability ([1]; first compound 8 µM)	relative viability ([2]; first compound 0.04 µM)	relative viability ([2]; first compound 0.1265 µM)	relative viability ([2]; first compound 0.4 µM)	relative viability ([2]; first compound 1.265 µM)	relative viability ([2]; first compound 4 µM)	relative viability ([3]; first compound 0.08 µM)	relative viability ([3]; first compound 0.253 µM)	relative viability ([3]; first compound 0.8 µM)	relative viability ([3]; first compound 2.53 µM)	relative viability ([3]; first compound 8 µM)	relative viability ([4]; first compound 0.08 µM)	relative viability ([4]; first compound 0.8 µM)	relative viability ([4]; first compound 2.53 µM)	relative viability ([4]; first compound 8 µM)
IA-LM	1.09	1.37	1.19	1.26						1.2	0.899	0.912	0.939	0.822	0.911	0.934	1.08	0.864
LC-2-ad		0.956	0.997	0.948	0.469	0.523	0.512		0.441	0.731	0.69	0.702	0.715	0.493	1.07	1.52	0.994	0.944
LCLC-97TM1	0.946	0.888	0.938	0.904	0.208	0.227	0.34	0.343	0.279	0.862	0.749	0.638	0.86	0.169	0.668	0.666	0.796	0.444
LCLC-103H	0.777	0.695	0.72	0.883	0.502	0.482	0.51	0.421	0.388	0.896	0.773	0.801	0.783	0.653	1.06	0.936	1.3	1.12
LK-2	1.05	1.27	1.03	1.42	0.165		0.17		0.171	0.365	0.356	0.282	0.25	0.278				
LOU-NH91	0.944	0.911	1	0.936	0.556	0.609	0.607	0.504	0.417	0.948	0.924	1	0.974	0.418	0.52	0.503	0.484	0.498
LU99A	0.766	0.87	0.864	0.797		0.278	0.234	0.227	0.227	0.565	0.447	0.51	0.559	0.519	1.1	1.26	1.35	1.08
NCI-H358	0.551	0.672	0.727	0.69	0.111	0.109	0.0968	0.105	0.0998	0.764	0.791	0.75	0.65	0.56				
NCI-H522					0.591	0.476	0.512	0.509	0.55	0.913	0.902	0.773	0.762	0.836				
NCI-H1299	1.1	1.08	1.07	1.08											1.02	1.01	1.02	0.999
NCI-H1395	0.982	0.821	1.15	1.04	0.811	0.749	0.739	0.805	0.656	0.642	1.13	0.768	0.72	0.481				
NCI-H1563	0.727	0.94	0.943	0.973											0.744	0.853	0.917	0.977
NCI-H1623	0.891	0.702	1.03	0.924	0.443	0.452	0.459	0.475	0.462									
NCI-H1648					0.655	0.513	0.984	1.02	0.957	0.553	0.36	0.398	0.571	0.391				
NCI-H1703	0.389	0.355	0.349	0.348											0.502	0.334	0.351	0.366
NCI-H1792															0.96	0.998	1.07	0.993
NCI-H1793	0.619	0.659	0.72	0.654	0.447	0.32	0.367		0.378	0.787	0.789	0.748	0.641	0.551				
NCI-H1944	0.845	0.884	0.997	0.839	0.278	0.269	0.271	0.258	0.218	0.607	0.562	0.633	0.611	0.533				
NCI-H2170	0.897	0.974	1	1.01	0.719	0.663	0.784	0.699	0.636	0.806	0.864	0.874	0.82	0.705				
NCI-H2342	0.899	1.04	1.21	1.29	0.496	0.382	0.493	0.495	0.525	0.801	0.847	0.816	0.765	0.754				
SK-MES-1	0.85	0.855	1.05	1	0.881	0.921	0.854	0.825	0.629	1.27	1.1	1.04	1.07	0.78				
SW 900	0.899	1.01	0.856	1.01	0.551	0.561	0.551	0.663	0.714		0.604	0.641	0.512	0.382				
